Paper PMC12030000 (Pharmaceuticals, 2025)

Test system: ALS patient-derived iMNs (C9orf72 pathology)
Experiment: iPSC-derived motor neuron (iMN) survival assay with neurotrophic factor withdrawal
Type: cell-based, human
Conditions: for Median survival time of treated ALS iMNs: ALS patient-derived iMNs, 14-day period; for Surviving iMNs (cell count): 300 tracked ALS iMNs on day 0
Method: In this study, iPSC-derived iMNs were generated from PALS (C9orf72 pathology) and from healthy donors' PBMCs. Neuronal survival rate was compared between PrimeC's components, their combination, and the relevant DMSO vehicle reference as described in Figure 2A-C. […] form between days 13 and 16 after transduction of iMN factors. The iMN survival assay was initiated on day 17. Starting at Day 17, longitudinal tracking of iMNs was performed using Molecular Devices ImageExpress once every other day for 16 days. Tracking of neuronal survival was performed using ImageJ version 1.53t. Neurons were scored as dead when their soma was no longer detectable by RFP fluorescence. iMN survival experiments included neurotrophic factor withdrawal in order to exacerbate the survival difference between control and PALS' iMNs. Neurotrophic factor withdrawal of FGF-2, BDNF, GDNF, and CNTF from the culture medium was performed on day 17. For treatment with drugs, cultures were treated with DMSO or a drug after neurotrophic factor withdrawal (starting at day 17). Treatment with fresh media containing vehicle or drugs occurred every 3 days for 16 days. […] Control cell lines of non-neurological subjects (i.e., neurologically healthy controls) were used in the comparisons. […] A hazard ratio was calculated for each of the comparisons as the likelihood of neuron death when treated with the indicated compound divided by the likelihood of neuron death when treated with another indicated compound. The lower the ratio, the […] it is for a cell to die when treated with the second compound compared to being treated with the first compound in each comparison above, and vice versa. Analysis utilized GraphPad Prism version 10.0.2 GraphPad. […] Kaplan-Meier plots were generated using iMNs obtained from each treatment condition in replicates of three. Confirmation of iMN survival times was analyzed by manual longitudinal tracking.

[1] = day 16, day 16 excluded from survival analyses

SMILES | Median survival time of treated ALS iMNs [days] | Surviving iMNs (cell count) (day 2) | Surviving iMNs (cell count) (day 4) | Surviving iMNs (cell count) (day 6) | Surviving iMNs (cell count) (day 8) | Surviving iMNs (cell count) (day 10) | Surviving iMNs (cell count) (day 12) | Surviving iMNs (cell count) (day 14) | Surviving iMNs (cell count) [1]
Cc1ccc(-c2cc(C(F)(F)F)nn2-c2ccc(S(N)(=O)=O)cc2)cc1 [Celecoxib, celecoxib] | 8 | 300 | 272 | 227 | 190 | 139 | 104 | 79 | 55
O=C(O)c1cn(C2CC2)c2cc(N3CCNCC3)c(F)cc2c1=O [Ciprofloxacin, ciprofloxacin] | 8 | 300 | 262 | 238 | 210 | 177 | 146 | 118 | 74
